Series [1] concerns HER2-positive metastatic breast cancer patients. Further details: method as in earlier work. The following applies: cited from earlier work; for Objective response rate (ORR): heavily pretreated HER2-positive metastatic breast cancer.
The next series has as its system HER2. Also on record: method as in PMID 24837299. The following applies: cited from earlier work.
A further series has as its system MDA-MB-361 cell line. Nature of the series: In vitro growth inhibition of parental cell line. The class given is cell-based. The following applies: Homo sapiens. The text has this: (§1) We evaluated the inhibitory activity of epertinib on the in vitro growth of the parental cell line, MDA-MB-361. […] To compare the growth inhibitory activity of epertinib on the parental and metastatic (BR2) cell lines, we evaluated the antitumor activity of epertinib in both cell lines. […] To confirm the antitumor activity of epertinib in the IVM, we examined the effect of epertinib on the IVM transplanted BR2.

Series [2] is described as follows: Plasma radioactivity and epertinib after single oral [14C]-epertinib hydrochloride in rats. The class given is in vivo. An excerpt: We used quantitative IMS to analyze and compare the distribution of epertinib and lapatinib in brain metastasis. IMS can simultaneously detect diverse molecules and obtain spatial distribution information capable of distinguishing between a drug and its metabolites in tissue sections[21],[35]. Historically, drug metabolism and pharmacokinetic studies have used radiolabels to perform autoradiography and obtain information about tissue distribution. Previously, plasma concentrations of radioactivity and epertinib were determined after a single oral administration of [^14C]-epertinib hydrochloride at a dose of 5 mg/kg (as epertinib) in rats (Supplementary Fig. S3). […] The AUC0–12 h and AUCinf values were 126 ± 18 and 392 ± 316 ng·h/mL, respectively. The plasma epertinib/radioactivity concentration ratio ranged from 10.9% to 16.2% through the measurable points, and the AUCinf ratio was ~20.8 ± 15.0%.
Supplementa ry Figure S3. Concentration of radioactivity and epertinib in plasma after single oral administration of [14C]-epertinib hydrochloride to non-f as ti ng male rats (dose: 5 mg as epertinib /kg)
Data ar e ex pressed as the mean values + SD o f fou r animals.
(1 picture or pasted object on this page, not shown here)

The subject of series [3] is patients with solid tumors. Also on record: method as in PMID 25434923, PMID 25434923, PMID 25434923. The following applies: phase I trials; cited from earlier work.
Series [4] relates to experimental brain metastasis of HER2-positive breast cancer (IVM). Nature of the series: Antitumor activity in the breast cancer IVM (bioluminescence). The class given is in vivo, mice. The following applies: once daily oral 50 mg/kg, 30 days, photons emitted from tumor.
Text: as §1
(§2) Figure 6 In vivo antitumor activity of epertinib in the breast cancer IVM. Epertinib inhibits the growth of breast cancer in animal models. In each animal model, vehicle or indicated doses of epertinib were orally administered daily. Tumor volume was measured twice or thrice weekly and the mean tumor volume with SD is represented by each data point. Human breast cancer cells, MDA-MB-361 (A) or MDA-MB-361-luc-BR2 (B) was implanted orthotopically into the mammary fat pad of mice. Tumor-bearing mice were treated for 28 days (A and B). Tumor growth in the breast cancer IVM ([…]) was monitored by the photons emitted from the tumor as an indicator, which was measured with an IVIS Imaging System 200 (Caliper Life Sciences). […] The photons were measured once or twice weekly and the mean photons/sec with SD are presented at each data point (n = 3 for vehicle, n = 4 for 50 mg/kg of epertinib) (C). […]

Series [5] has as its target T1, breast cancer resistance protein (BCRP) (Homo sapiens, UniProt Q9UNQ0).
T1 construct: permeability and efflux ratio of epertinib across Caco-2 cell monolayers; endogenous in cells; host or cells: Caco-2
T1 sequence (Q9UNQ0 1-655): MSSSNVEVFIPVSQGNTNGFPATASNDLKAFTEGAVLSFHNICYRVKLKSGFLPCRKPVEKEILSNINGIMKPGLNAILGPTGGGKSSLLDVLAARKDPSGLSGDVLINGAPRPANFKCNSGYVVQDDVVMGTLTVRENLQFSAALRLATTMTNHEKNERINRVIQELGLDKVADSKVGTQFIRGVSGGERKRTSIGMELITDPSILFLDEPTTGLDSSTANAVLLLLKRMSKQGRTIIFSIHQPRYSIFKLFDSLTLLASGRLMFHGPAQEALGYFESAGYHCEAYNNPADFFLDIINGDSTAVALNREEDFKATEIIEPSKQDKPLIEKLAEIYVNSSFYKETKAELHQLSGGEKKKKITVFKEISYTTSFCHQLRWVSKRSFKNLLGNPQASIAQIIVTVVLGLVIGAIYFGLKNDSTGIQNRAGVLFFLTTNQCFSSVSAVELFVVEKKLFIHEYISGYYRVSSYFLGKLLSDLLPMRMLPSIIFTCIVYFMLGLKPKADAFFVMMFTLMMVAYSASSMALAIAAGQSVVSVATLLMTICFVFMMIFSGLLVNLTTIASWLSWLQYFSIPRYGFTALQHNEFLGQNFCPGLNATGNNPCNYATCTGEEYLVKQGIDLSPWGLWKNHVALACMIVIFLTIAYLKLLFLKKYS
Nature of the series: BCRP substrate assessment. The series is classed as in vitro ADME. The following applies: from permeability and efflux ratio across Caco-2 cell monolayers. On the technique in general: Passage across Caco-2 layers is used to estimate intestinal permeability.

In another series the test system is MDA-MB-361-luc-BR2. Nature of the series: Mammary fat pad implantation model, antitumor activity. The series is classed as in vivo, mice. The conditions noted are these: Mus musculus, 672 h; BR2 in mammary fat pad, oral daily for 28 days.
Text: as §1, §2

For another series, the system named is MDA-MB-361. Described as above. The series is classed as in vivo, mice. The following applies: Mus musculus, 672 h; MDA-MB-361 in mammary fat pad, oral daily for 28 days.
Text: as §1, §2

A further series concerns the target T2, P-glycoprotein (P-gp) (Homo sapiens, UniProt P08183).
T2 construct: permeability and efflux ratio of epertinib across Caco-2 cell monolayers; endogenous in cells; host or cells: Caco-2
The conditions noted are these: cited from earlier work.

Series [6] relates to HER2-positive metastatic breast cancer patients. The conditions noted are these: historical data, combination with trastzumab; cited from earlier work.
In series [7] the target is T1, breast cancer resistance protein (BCRP). The following applies: cited from earlier work.

The structures appear in SMILES notation. Read-outs that look alike come from different tables or passages of the source.

T2 sequence (P08183 whole entry): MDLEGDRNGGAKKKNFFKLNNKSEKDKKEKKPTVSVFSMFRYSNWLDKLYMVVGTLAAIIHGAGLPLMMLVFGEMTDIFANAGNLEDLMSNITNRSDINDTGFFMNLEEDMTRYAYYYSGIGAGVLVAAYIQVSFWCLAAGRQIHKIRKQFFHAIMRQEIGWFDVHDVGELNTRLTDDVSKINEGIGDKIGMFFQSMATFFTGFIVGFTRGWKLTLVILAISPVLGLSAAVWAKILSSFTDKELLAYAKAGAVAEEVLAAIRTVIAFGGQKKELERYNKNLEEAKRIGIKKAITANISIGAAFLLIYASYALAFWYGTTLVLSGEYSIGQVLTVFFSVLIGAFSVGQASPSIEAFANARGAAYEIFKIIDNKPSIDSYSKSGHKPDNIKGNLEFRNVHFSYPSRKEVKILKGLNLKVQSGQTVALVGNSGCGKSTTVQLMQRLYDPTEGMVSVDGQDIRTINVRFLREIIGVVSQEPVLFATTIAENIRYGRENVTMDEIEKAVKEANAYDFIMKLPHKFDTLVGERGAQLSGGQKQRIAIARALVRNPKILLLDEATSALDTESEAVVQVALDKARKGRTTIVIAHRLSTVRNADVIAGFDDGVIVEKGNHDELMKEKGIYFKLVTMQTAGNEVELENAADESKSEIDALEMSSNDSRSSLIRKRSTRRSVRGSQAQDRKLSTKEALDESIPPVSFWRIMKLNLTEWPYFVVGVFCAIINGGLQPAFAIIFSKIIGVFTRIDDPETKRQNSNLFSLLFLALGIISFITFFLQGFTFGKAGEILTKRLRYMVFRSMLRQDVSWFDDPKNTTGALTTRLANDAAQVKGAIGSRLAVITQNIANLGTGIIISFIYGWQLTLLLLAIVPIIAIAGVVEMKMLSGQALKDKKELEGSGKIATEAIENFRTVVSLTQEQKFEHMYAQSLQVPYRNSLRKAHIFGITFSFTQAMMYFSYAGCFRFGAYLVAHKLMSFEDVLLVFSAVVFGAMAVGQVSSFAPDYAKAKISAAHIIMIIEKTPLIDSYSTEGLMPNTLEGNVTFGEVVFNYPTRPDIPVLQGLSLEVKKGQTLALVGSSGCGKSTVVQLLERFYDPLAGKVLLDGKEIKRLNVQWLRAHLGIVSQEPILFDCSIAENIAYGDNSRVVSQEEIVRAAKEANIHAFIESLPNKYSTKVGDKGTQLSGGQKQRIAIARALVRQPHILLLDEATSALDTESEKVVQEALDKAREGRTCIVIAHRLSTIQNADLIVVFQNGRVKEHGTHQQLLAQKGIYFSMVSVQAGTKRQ

A word on the IC50: it is the concentration that inhibits the measured activity by half. Usually ED50 stands for the midpoint of the dose-response relation. For the molecule `CC#CC(=NOCC1COCCN1)c1ccc2ncnc(Nc3ccc(OCc4cccc(F)c4)c(Cl)c3)c2c1` (stereo not shown) [Epertinib], the “Tumor reduction (partial response), brain metastases as the target lesion” value in [1] (all the participants in a clinical trial) was “two of 45”. In addition, the “Objective response rate (ORR)” value is 56% in series [1] (in combination with trastuzumab and capecitabine); 67% in series [1] (in combination with trastuzumab). Also, in [1] (in combination with trastuzumab, patients previously treated with lapatinib plus capecitabine or ado-trastuzumab emtansine), the “Tumor response (patients)” value is on record as “seven of 21”. Also, the “Off-rate of dissociation compared with lapatinib” value with HER2 is given as “slower off-rate of dissociation”. The concentration for half-maximal inhibition (IC50) with MDA-MB-361 cell line worked out at 26.5 nM. Also, the “Epertinib/radioactivity AUCinf ratio” value in series [2] is on record as ~ 20.8 ± 15.0%. The AUC(0-t) in series [2] (male, rat, plasma, single oral 5 mg/kg [14C]-epertinib hydrochloride, read-out: AUC0–12 h of epertinib) was determined as 126 ± 18 ng·h/mL. The AUC(0-inf) in series [2] (male, rat, plasma, single oral 5 mg/kg [14C]-epertinib hydrochloride, read-out: AUCinf of epertinib) was found to be 392 ± 316 ng·h/mL. In addition, in series [2] (male, rat, plasma, single oral 5 mg/kg [14C]-epertinib hydrochloride, read-out: Plasma concentration of epertinib, Cmax), the Cmax was 14.1 ± 3.6 ng/mL. Besides, the “Time of Cmax of plasma epertinib” value in series [2] (single oral 5 mg/kg [14C]-epertinib hydrochloride) is 5.00 ± 1.15 h. In series [3], the Tolerability entry is listed as “well tolerated”. Besides, the “Effect on brain tumor volume” value in series [4] is “significantly reduced the brain tumor volume”. Moreover, the BCRP substrate entry in series [5] is listed as “not a substrate”. Besides, the values for the ED50 with MDA-MB-361-luc-BR2 and in the series with MDA-MB-361 were 26.5 mg/kg and 24.1 mg/kg, respectively.
For the molecule `CS(=O)(=O)CCNCc1ccc(-c2ccc3ncnc(Nc4ccc(OCc5cccc(F)c5)c(Cl)c4)c3c2)o1` [Lapatinib, N-{3-chloro-4-[(3-fluorobenzyl)oxy]phenyl}-6-[5-({[2-(methylsulfonyl)ethyl]amino}methyl)-2-furyl]-4-quinazolinamine, reference compound], the P-gp substrate entry at P-glycoprotein (P-gp) is “substrates”. The “Objective response rate (ORR)” value in [6] is 10.3%. For the same molecule, the BCRP substrate result in series [7] was “substrates”.

The values above are taken from paper PMC5762859, “Distribution analysis of epertinib in brain metastasis of HER2-positive breast cancer by imaging mass spectrometry and prospect for antitumor activity” (Scientific Reports, 2018).
